Test results as given in patent US9670161B2, “5-fluoro-N-(pyridin-2-yl)pyridin-2-amine derivatives containing a sulfone group” (BAYER PHARMA AKTIENGESELLSCHAFT, priority 2012, dated 2017).

Experiments:
[1] = target: T1, CDK9/CycT1 (Homo sapiens (Human), UniProt P50750); experiment: CDK9/CycT1 kinase assay (TR-FRET, 10 μM ATP); type: biochemical; conditions: Method 1a
Excerpt: 1a. CDK9/CycT1 Kinase Assay:
CDK9/CycT1-inhibitory activity of compounds of the present invention was quantified employing the CDK9/CycT1 TR-FRET assay as described in the following paragraphs:
(§1) Recombinant full-length His-tagged human CDK9 and CycT1, expressed in insect cells and purified by Ni-NTA affinity chromatography, were purchased from Invitrogen (Cat. No PV4131). As substrate for the kinase reaction biotinylated peptide biotin-Ttds-YISPLKSPYKISEG (C-terminus in amid form) was used which can be purchased e.g. form the company JERINI Peptide Technologies (Berlin, Germany).
(§2) For the assay 50 nl of a 100 fold concentrated solution of the test compound in DMSO was pipetted into a black low volume 384 well microtiter plate (Greiner Bio-One, Frickenhausen, Germany), 2 μl of a solution of CDK9/CycT1 in aqueous assay buffer [50 mM Tris/HCl pH 8.0, 10 mM MgCl2, 1.0 mM dithiothreitol, 0.1 mM sodium ortho-vanadate, 0.01% (v/v) Nonidet-P40 (Sigma)] were added and the mixture was incubated for 15 min at 22° C. to allow pre-binding of the test compounds to the enzyme before the start of the kinase reaction. Then the kinase reaction was started by the addition of 3 μl of a solution of adenosine-tri-phosphate (ATP, 16.7 μM=>final conc. in the 5 μl assay volume is 10 μM) and substrate (1.67 μM=>final conc. in the 5 μl assay volume is 1 μM) in assay buffer and the resulting mixture was incubated for a reaction time of 25 min at 22° C. The concentration of CDK9/CycT1 was adjusted depending of the activity of the enzyme lot and was chosen appropriate to have the assay in the linear range, typical concentrations were in the range of 1 μg/mL. The reaction was stopped by the addition of 5 μl of a solution of TR-FRET detection reagents (0.2 μM streptavidine-XL665 [Cisbio Bioassays, Codolet, France] and 1 nM anti-RB(pSer807/pSer811)-antibody from BD Pharmingen [#558389] and 1.2 nM LANCE EU-W1024 labeled anti-mouse IgG antibody [Perkin-Elmer, product no. AD0077]) in an aqueous EDTA-solution (100 mM EDTA, 0.2% (w/v) bovine serum albumin in 100 mM HEPES/NaOH pH 7.0).
(§3) The resulting mixture was incubated 1 h at 22° C. to allow the formation of complex between the phosphorylated biotinylated peptide and the detection reagents. Subsequently the amount of phosphorylated substrate was evaluated by measurement of the resonance energy transfer from the Eu-chelate to the streptavidine-XL. Therefore, the fluorescence emissions at 620 nm and 665 nm after excitation at 350 nm was measured in a HTRF reader, e.g. a Rubystar (BMG Labtechnologies, Offenburg, Germany) or a Viewlux (Perkin-Elmer). The ratio of the emissions at 665 nm and at […] was taken as the measure for the amount of phosphorylated substrate. The data were normalised (enzyme reaction without inhibitor=0% inhibition, all other assay components but no enzyme=100% inhibition).

[2] = target: T1, CDK9/CycT1; experiment: CDK9/CycT1 high ATP kinase assay (TR-FRET, 2 mM ATP); type: biochemical; conditions: Method 1b
Experimental: 1b. CDK9/CycT1 High ATP Kinase Assay
CDK9/CycT1-inhibitory activity of compounds of the present invention at a high ATP concentration after preincubation of enzyme and test compounds was quantified employing the CDK9/CycT1 TR-FRET assay as described in the following paragraphs.
as §1, with “were purchase” for “were purchased”, “JERINI peptide technologies” for “JERINI Peptide Technologies”
as §2, with “(ATP, 3.3 mM=>final” for “(ATP, 16.7 μM=>final”, “is 2 mM)” for “is 10 μM)”, “of 0.5” for “of 1”
as §3

T1 sequence (P50750 whole entry): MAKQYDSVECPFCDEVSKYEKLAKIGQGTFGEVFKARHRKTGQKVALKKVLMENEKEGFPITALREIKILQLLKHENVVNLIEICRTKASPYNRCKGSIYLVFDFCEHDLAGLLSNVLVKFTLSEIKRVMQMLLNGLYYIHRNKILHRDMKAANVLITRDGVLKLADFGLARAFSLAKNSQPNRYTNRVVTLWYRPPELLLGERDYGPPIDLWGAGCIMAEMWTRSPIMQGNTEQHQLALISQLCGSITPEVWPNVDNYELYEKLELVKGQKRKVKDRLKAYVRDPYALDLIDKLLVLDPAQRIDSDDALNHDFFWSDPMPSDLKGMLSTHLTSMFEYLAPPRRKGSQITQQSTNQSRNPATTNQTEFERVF
T1 sequence (O60563 whole entry partner): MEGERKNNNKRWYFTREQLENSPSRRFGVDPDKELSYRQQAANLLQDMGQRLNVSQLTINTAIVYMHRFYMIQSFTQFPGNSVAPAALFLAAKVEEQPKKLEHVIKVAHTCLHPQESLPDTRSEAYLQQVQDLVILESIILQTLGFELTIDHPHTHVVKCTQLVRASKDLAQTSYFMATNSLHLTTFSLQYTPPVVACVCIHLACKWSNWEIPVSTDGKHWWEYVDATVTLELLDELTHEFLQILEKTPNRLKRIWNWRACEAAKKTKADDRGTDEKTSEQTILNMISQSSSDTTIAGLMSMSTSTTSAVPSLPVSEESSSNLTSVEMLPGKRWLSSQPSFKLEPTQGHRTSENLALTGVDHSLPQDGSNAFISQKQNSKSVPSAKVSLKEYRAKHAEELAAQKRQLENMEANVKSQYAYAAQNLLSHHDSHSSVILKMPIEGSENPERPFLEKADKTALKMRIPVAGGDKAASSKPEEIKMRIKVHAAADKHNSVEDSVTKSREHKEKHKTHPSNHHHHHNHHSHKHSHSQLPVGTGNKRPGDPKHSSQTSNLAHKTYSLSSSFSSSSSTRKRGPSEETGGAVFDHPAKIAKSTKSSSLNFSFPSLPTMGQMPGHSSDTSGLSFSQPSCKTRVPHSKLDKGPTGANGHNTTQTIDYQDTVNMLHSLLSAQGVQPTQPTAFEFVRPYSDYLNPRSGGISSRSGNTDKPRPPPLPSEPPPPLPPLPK

Row | SMILES | IC50 [1] [nM] | IC50 [2] [nM]
1 | COc1cc(F)ccc1-c1cc(Nc2cc(CS(C)(=O)=O)ccn2)ncc1F [Example 1, 5-Fluoro-4-(4-fluoro-2-methoxyphenyl)-N-{4-[(methylsulfonyl)methyl]pyridin-2-yl}pyridin-2-amine] | 2 | 2
2 | COc1cc(F)ccc1-c1cc(Nc2cc(CS(C)(=O)=O)cc(F)n2)ncc1F [Example 3, 5-Fluoro-4-(4-fluoro-2-methoxyphenyl)-N-{6-fluoro-4-[(methylsulfonyl)methyl]pyridin-2-yl}pyridin-2-amine] | 3 | 2

Further molecules by falling IC50 [1], results first:

Row | IC50 [1] [nM] | IC50 [2] [nM] | SMILES
3 | 4 | 3 | COc1cc(F)ccc1-c1cc(Nc2cc(CS(C)(=O)=O)cc(C(F)(F)F)n2)ncc1F [Example 4, 5-Fluoro-4-(4-fluoro-2-methoxyphenyl)-N-{4-[(methylsulfonyl)methyl]-6-(trifluoromethyl)pyridin-2-yl}pyridin-2-amine]
4 | 3 | 2 | COc1cc(F)ccc1-c1cc(Nc2cc(CS(C)(=O)=O)cc(C)n2)ncc1F [Example 2, 5-Fluoro-4-(4-fluoro-2-methoxyphenyl)-N-{6-methyl-4-[(methylsulfonyl)methyl]pyridin-2-yl}pyridin-2-amine]
5 | 2 | 1 | COc1cc(F)ccc1-c1cc(Nc2cc(CS(C)(=O)=O)cc(C(F)F)n2)ncc1F [Example 5, N-{6-(Difluoromethyl)-4-[(methylsulfonyl)methyl]pyridin-2-yl}-5-fluoro-4-(4-fluoro-2-methoxyphenyl)pyridin-2-amine]
